Our source for the IC50, inhibition and Ratio IC50 values is ChEMBL document CHEMBL2380269, “Conformationally restricted homotryptamines. Part 6: indole-5-cycloalkyl methylamines as selective serotonin reuptake inhibitors” (Bioorg Med Chem Lett, 2013).

Where only a bound is given, the exact number is not on record here.

Experiment [1] deals with Sodium-dependent serotonin transporter (Homo sapiens, UniProt P31645). The experiment is described as follows: Displacement of [3H]citalopram from human SERT expressed in HEK293 cell membranes. (In general: In a radioligand displacement assay an active substance lowers the binding of a labelled ligand.)
Experiment [2] addresses T1, Sodium-dependent dopamine transporter (Homo sapiens, UniProt Q01959). The experiment is described as follows: Displacement of [3H]WIN-35428 form human DAT expressed in HEK293 cell membranes at 1 uM.
Experiment [3] concerns the target T2, Sodium-dependent noradrenaline transporter (Homo sapiens, UniProt P23975). The experiment is described as follows: Displacement of [3H]nisoxetine from human NET expressed in HEK293 cell membranes at 1 uM.
In experiment [4] the target is T1, Sodium-dependent dopamine transporter. The experiment is described as follows: Displacement of [3H]WIN-35428 form human DAT expressed in HEK293 cell membranes.
Experiment [5] concerns HEK293. The experiment is described as follows: Ratio of IC50 for human NET expressed in HEK293 cell membranes to IC50 for human SERT expressed in HEK293 cell membranes. The format is cell-based.
In experiment [6] the test system is HEK293. The experiment is described as follows: Ratio of IC50 for human DAT expressed in HEK293 cell membranes to IC50 for human SERT expressed in HEK293 cell membranes. The format is cell-based.
The target of experiment [7] is T2, Sodium-dependent noradrenaline transporter. The experiment is described as follows: Displacement of [3H]nisoxetine from human NET expressed in HEK293 cell membranes.

T2 sequence (P23975 whole entry): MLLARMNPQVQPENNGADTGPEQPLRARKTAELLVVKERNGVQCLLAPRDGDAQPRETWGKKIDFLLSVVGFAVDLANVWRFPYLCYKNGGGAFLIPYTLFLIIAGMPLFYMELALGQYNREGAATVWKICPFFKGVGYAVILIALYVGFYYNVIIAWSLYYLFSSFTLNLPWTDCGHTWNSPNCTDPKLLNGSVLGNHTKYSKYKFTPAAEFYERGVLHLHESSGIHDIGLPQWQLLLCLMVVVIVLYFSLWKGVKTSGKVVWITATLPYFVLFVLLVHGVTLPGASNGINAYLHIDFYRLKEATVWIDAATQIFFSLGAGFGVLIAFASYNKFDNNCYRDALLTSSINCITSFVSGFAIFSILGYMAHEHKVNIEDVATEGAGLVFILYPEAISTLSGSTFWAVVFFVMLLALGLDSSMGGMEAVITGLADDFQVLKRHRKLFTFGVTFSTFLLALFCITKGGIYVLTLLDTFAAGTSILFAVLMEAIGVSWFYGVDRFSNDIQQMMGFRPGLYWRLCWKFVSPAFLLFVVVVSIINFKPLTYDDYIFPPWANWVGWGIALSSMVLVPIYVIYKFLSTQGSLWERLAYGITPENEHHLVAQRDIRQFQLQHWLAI
Sequence of Sodium-dependent serotonin transporter (P31645 whole entry): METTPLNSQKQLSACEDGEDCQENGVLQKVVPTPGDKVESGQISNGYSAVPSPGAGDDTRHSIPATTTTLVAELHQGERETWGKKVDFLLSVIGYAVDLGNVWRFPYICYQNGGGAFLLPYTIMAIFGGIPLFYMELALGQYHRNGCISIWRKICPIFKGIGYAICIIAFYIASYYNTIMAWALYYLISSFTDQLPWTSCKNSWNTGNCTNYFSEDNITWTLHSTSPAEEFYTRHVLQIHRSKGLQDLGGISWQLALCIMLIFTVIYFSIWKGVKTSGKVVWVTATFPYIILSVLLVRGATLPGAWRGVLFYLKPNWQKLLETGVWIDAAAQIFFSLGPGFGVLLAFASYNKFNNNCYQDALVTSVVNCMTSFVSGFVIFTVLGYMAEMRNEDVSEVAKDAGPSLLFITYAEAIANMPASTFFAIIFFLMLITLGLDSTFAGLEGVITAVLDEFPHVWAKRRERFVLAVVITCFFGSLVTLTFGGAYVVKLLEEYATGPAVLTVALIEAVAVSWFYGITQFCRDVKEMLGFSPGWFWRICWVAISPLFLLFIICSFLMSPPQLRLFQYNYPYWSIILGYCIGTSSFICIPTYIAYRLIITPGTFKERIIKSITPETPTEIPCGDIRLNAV
T1 sequence (Q01959 whole entry): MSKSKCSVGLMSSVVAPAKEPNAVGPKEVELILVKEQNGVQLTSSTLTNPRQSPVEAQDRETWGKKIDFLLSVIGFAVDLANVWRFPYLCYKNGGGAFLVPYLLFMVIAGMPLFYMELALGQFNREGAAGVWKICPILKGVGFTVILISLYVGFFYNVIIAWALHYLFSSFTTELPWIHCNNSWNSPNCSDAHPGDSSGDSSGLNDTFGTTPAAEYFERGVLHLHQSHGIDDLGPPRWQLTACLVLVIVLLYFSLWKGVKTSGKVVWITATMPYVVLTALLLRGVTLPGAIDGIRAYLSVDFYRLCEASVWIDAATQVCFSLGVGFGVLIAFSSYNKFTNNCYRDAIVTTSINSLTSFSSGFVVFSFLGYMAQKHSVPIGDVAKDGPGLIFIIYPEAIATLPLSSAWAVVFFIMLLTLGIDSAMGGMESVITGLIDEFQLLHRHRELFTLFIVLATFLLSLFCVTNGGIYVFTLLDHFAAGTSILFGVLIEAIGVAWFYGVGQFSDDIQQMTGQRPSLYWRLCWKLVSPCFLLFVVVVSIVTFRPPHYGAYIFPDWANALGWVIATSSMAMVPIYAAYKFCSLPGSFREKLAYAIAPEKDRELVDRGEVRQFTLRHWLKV

Turning to `CCNC[C@@H]1CCC[C@H]1c1ccc2[nH]cc(C#N)c2c1` (racemic), the IC50 (in general, the concentration at which inhibition is half-maximal) in experiment [1] was 260 nM.

`CN(C)C[C@@H]1C[C@H]1c1ccc2[nH]ccc2c1` (racemic) returned an IC50 in experiment [1] above 1000 nM.

`N#Cc1c[nH]c2ccc([C@@H]3CCC[C@H]3CN3CCCC3)cc12` (racemic): the IC50 in experiment [1] is 300 nM.

Consider `CNC[C@H]1CCC[C@H]1c1ccc2[nH]cc(C#N)c2c1` (racemic), for which the results for the inhibition in experiment [2] and in experiment [3] were 53% and 78%, respectively. Moreover, the IC50 in experiment [1] worked out at 64 nM; in experiment [4], 660 nM; in experiment [7], 0.51 µM. Moreover, the Ratio IC50 in the experiment on HEK293 [5] and with HEK293 [6] was 10 each time.

`CNC[C@@H]1CCC[C@H]1c1ccc2[nH]cc(C#N)c2c1` (racemic): the inhibition (commonly the drop in the measured response relative to a control, in per cent) in experiment [2] was 49%; in experiment [3] it was 16%. For the same compound, the IC50 in experiment [1] was determined as 4.3 nM; in experiment [4], 750 nM; in experiment [7] it was 3.7 µM. For the same compound, the Ratio IC50 with HEK293 [5] and in the experiment on HEK293 [6] was above 100 throughout.

For the compound `CN(C)C[C@H]1C[C@@H]1Cc1ccc2[nH]cc(C#N)c2c1` (racemic), the figures for the inhibition in experiment [2] and in experiment [3] were 17% and 25%, respectively. The IC50 in experiment [1] came out at 97 nM. The Ratio IC50 with HEK293 [5] and in the experiment with HEK293 [6] was above 100 each time.

With `CCN(C)C[C@@H]1CCC[C@H]1c1ccc2[nH]cc(C#N)c2c1` (racemic), the IC50 in experiment [1] came to 200 nM.

Turning to `CN(C)C[C@H]1CCC[C@H]1c1ccc2[nH]cc(C#N)c2c1` (racemic), the inhibition in experiment [2] stood at 56%; in experiment [3], 68%. The compound also yielded an IC50 in experiment [1] of 18 nM. Moreover, the Ratio IC50 with HEK293 [5] and with HEK293 [6] was above 100 each time.

In the case of `CCN(CC)C[C@@H]1CCC[C@H]1c1ccc2[nH]cc(C#N)c2c1` (racemic), the IC50 in experiment [1] was 710 nM.

For the compound `CN(C)C[C@@H]1CCC[C@H]1c1ccc2[nH]cc(C#N)c2c1` (racemic), the inhibition was 50% in experiment [2] and -1.7% in experiment [3]. The half-inhibitory concentration (IC50) in experiment [1] worked out at 3.8 nM; in experiment [7], 8.2 µM. The Ratio IC50 in the experiment on HEK293 [5] and in the experiment with HEK293 [6] was above 100 throughout.

As for `CN(C)C[C@@H]1C[C@H]1c1ccc2[nH]cc(C#N)c2c1` (racemic), the inhibition in experiment [2] stood at 39%; in experiment [3] it was 55%. The compound also gave an IC50 in experiment [1] of 6 nM. Moreover, the Ratio IC50 in the experiment with HEK293 [5] and in the experiment with HEK293 [6] was above 100 throughout.

In experiment [1], `CN(C)C[C@H]1CCC[C@H]1c1c[nH]c2ccc(C#N)cc12` yielded an IC50 of 1.1 nM.

As to `CN(Cc1ccccc1)C[C@@H]1CCC[C@H]1c1ccc2[nH]cc(C#N)c2c1` (racemic), the 50% inhibitory concentration (IC50) in experiment [1] was 140 nM.

In experiment [1], `CN(C)C[C@@H]1CCC[C@H]1c1ccc2c(c1)c(C#N)cn2C` (racemic) yielded an IC50 of 570 nM.

Regarding `CN(C)C[C@H]1C[C@@H]1c1c[nH]c2ccc(C#N)cc12`, the IC50 in experiment [1] is 0.56 nM.
